Assays:
[1] = system: corn (Zea mays) seedlings; assay: Blind test: NN recognition of mode-of-action of herbicides not used in training; type: in vivo; conditions: NN trained only with untreated, PURSUIT, Diuron, Sethoxydim, Glyphosate; different herbicide concentrations
Method: As an example, we have used the NN trained and validated as shown in the above Example 3. It was trained to recognize untreated, PURSUIT®, Diuron, Sethoxydim, and Glyphosate treatment. In a blind test, we presented pattern from samples that were treated with no herbicide or different concentrations of various herbicides. In addition to the herbicides used in the training set, two other imidazolinones: ASSERT® and ARSENAL® (imazapyr and imazamethabenz) and two sulfonylureas GLEAN® and OUST® (chlorsulfuron and sulfometuron) were chosen, and the plants were treated as described above. For the blind test of the ANN analysis tool the samples only the two first to batches contributed samples to the training set. Thereby, the neuronal network had to truly recognized new batches with many samples having compound treatments applied that were unknown to the NN. In summary, we found a complete success of the methodology: The neuronal network classifies all untreated samples correctly as untreated, assigns the correct herbicide treatment for all herbicides that have been previously presented to the NN during training, even if such samples originated from batches that were not part of the NN training.
Note that the learning output target for the test spectra is zero in all cases in FIG. 4a and 4b. The total SSE in the calculation was high because of the difference between the given output value (zero) and the calculated value, but the spectra were correctly classified in all cases as belonging to the second output node, which is imazethapyr or AHAS inhibition. Similar results were obtained for the second set of experiments.

[2] = system: Corn plants (Zea mays), Pioneer 3514; assay: Herbicide mode-of-action recognition by 1H NMR of plant isolates and neural network analysis (Example 8); type: in vivo; conditions: for herbicide treatment group assigned by the neural network: chemically different AHAS inhibitors, output unit activation vs. treatment group; for output unit activation: small NN trained with first batch, tested on second batch, four herbicide groups and control
Method: Zea mays seeds (Pioneer 3514) were set to germinate in paper towel rolls in tap water for 5 days in the growing chamber. The environment was adjusted to “summer conditions” (day/night ratio of 14/10 hours, regulated temperature of 27° C. and humidity of 70%). After germination the seedlings were visually inspected. Seedlings that were homogeneous in size and appearance were selected, set in 50-ml amber bottles in 25-ml Hoagland nutrient solution (12 ml micronutrients stock solution, 12 ml FeEDTA (5 g/100 ml), 2.4 ml KH2PO4 (1 M), 24 ml MgSO4 (1 M), 60 ml KNO3 (1 M), 60 ml Ca(NO3)2 (1 M), and 60 ml MES buffer (200 mM), diluted to 12 litre with deionized water) and grown for 5 more days, after which they reached the three-leaf stage. At this point, 20 μl of a stock solution of technical grade herbicide in acetone (see Table I) was added to the hydroponic solution or applied to the second leaf (with similar results). The control group of “Untreated Plants” received 20 μl acetone only and all of the plants were returned to the growing chamber.
Twenty-four hours post-treatment, the plants were harvested by excising between the coleoptile and the first leaf collar. At this time, the plants show only slight growth stunting in response to the treatments. The first leaf sheet was separated and the meristematic tissue (approximately 250 to 300 mg per plant) was collected, flash frozen in liquid nitrogen in a cryogenic 3 ml tube, and stored in a liquid nitrogen freezer until further use. The plant meristems were each pulverized in a mortar (under liquid N2), suspended in 2.4 ml of HCl solution (0.25N) and centrifuged at 14000 g, 4° C., for 60 minutes. The NMR samples were prepared from 0.8 ml of the supernatants and 0.2 ml D2O (with TSP 0.05 w/v) and kept on ice.
The 500 MHz ^1H NMR spectra of plant extracts were recorded using a Bruker AMX 500 NMR spectrometer equipped with a TXI 5 mm probe. The probe temperature was carefully regulated using the Bruker/Haake variable temperature accessory, and all spectra were recorded under identical experimental conditions, as shown in Table 10:
The time-domain NMR spectra (“FIDs”) were exponential multiplied (LB=0.5 Hz), Fourier transformed, and then phase- and baseline-corrected manually. The frequency domain were exported by the NMR software as J-CAMP formatted files, which were stored in a UNIX subdirectory for “preprocessing” via NN_Tools, as described below.
The frequency domain NMR spectra were “preprocessed” by NN_Tools as follows: J-CAMP formatted spectra files were converted into vectors (8 k real data points), and the files were renamed (renumbered) in order to be processed by further programs in an automatic fashion. A window of points was cut from the central part (around O1) of each vector to delete the residual water signal. Then points were cut from the low field and high field parts of the vector, because no resonance signals were detectable in these regions. Groups of typically five (5) adjacent points were averaged in histogram fashion (“bining”) and the resulting “preprocessed” spectrum comprised 1080 data points. Finally, vertical scaling was applied to meet the signal amplitude requirements of the neural network software.
The artificial neural network calculations described in the report were performed using a standard software package, the Stuttgart Neural Network Simulator (SNNS), on a Silicon Graphics Inc. (SGI) UNIX workstation. A convenient interface called NN_Tools, was developed in-house to perform NMR spectral preprocessing and to format the raw data for input to SNNS. NN_Tools comprises a set of Perl scripts which form patterns out of NMR spectra that can be input automatically to SNNS for the training, validation, and testing steps of neural network simulation. This free software package (“freeware”) was developed at the Institute for Parallel and Distributed High Performance Systems at the University of Stuttgart, Germany. […]

[3] = system: corn (Zea mays) seedlings (Pioneer 3514); assay: Neural network recognition of treatment from 1H NMR spectra of corn seedling extracts (training/validation cycle); type: in vivo; conditions: for Network Recognition: validation set sel4c.pat, NN trained with 15 spectra (sel4.pat), meristematic tissue harvested 24 hours after treatment
Method: For example, corn (Zea mays) seeds (Pioneer 3514) were set to germinate in paper towel rolls in tap water covered with plastic foil (to minimize evaporation) for 5 days in the growing chamber. Conditions were adjusted to “summer days” (day/night 14/10 hours, controlled temperature 27° C. and humidity 70%). After germination the seedlings were visually inspected. Seedlings that were homogeneous in size and appearance were selected and set to grow in hydroponic Hoagland culture solution.
Each seedling was set in a 50 mL dark bottle in 25 mL Hoagland nutrient solution. The plants were then grown for 5 more days after they had reached the three-leaf stage. At this point the hydroponic solution was changed and the seedlings were treated as follows:
Different herbicide stock solutions in acetone were added in concentrated form to the hydroponic solution or, in the case of control plants with 20 μL acetone, or
The hydroponic solution was replaced by a solution containing different concentrations of herbicides, or just hydroponic nutrient solution for control plants.
All herbicides were technical grade. The plants were returned to the growing chamber after treatment. After 24 hours, the plants were harvested by excising between the coleoptile and the first leaf collar. The first leaf sheet was separated and the meristematic tissue collected was flash frozen in liquid nitrogen in a cryogenic 3 ml tube and stored in the liquid nitrogen freezer until further use.
For example, frozen meristematic tissue was placed in a mortar and liquid nitrogen was added. The pestle was also allowed to cool in the liquid nitrogen. When the liquid nitrogen was evaporated, the plant tissue was pulverized in the mortar. Then, 2.4 mL of 0.25N aq. HCl solution were added to the mortar and the sample was further mixed with the pestle. The suspension was placed into an Eppendorf centrifuge tube and set in ice until all the samples for an experiment were processed for centrifugation. The samples were centrifuged at 14000 g, at 4° C., for 60 minutes. The supernatant was separated from the pellet and 0.8 mL taken and mixed with 0.2 mL D2O (with TSP 0.05 w/v for NMR reference) for the lock signal in the spectrometer. The samples were kept in ice until NMR measurement.
The proton NMR spectra of plant extracts were recorded using a Bruker AMX 500 NMR spectrometer equipped with a TXI 5 mm probe. The probe temperature was carefully regulated to better than ±0.1 K using the Bruker/Haake variable temperature accessory, and all spectra were recorded under identical experimental conditions, as follows:
The NMR spectra were multiplied with an exponential function (LB parameter=0.5 Hz), Fourier transformed, and manually phase- and baseline-corrected. Spectra were, in an automatic fashion, exported into JCAMP-DX format and converted into pattern vectors for pattern recognition approaches. A window of points was removed from the central part of each vector prior to analysis, to avoid the water residual signal as shown in FIG. 2. Also, data points were removed at the low field and high field portions of the spectral vector because no resonance signals were detectable in these regions.
A first set of 71 spectra, with 3 batches of 6-9 control samples, 2 batches with 15 PURSUIT® treated samples, and one batch each with 6(4) Sethoxydim, Glyphosate, and Diuron treated samples. Two plants fouled after the herbicide treatment phase, and were treated as separate category, exemplifying samples with very different properties. […]

[4] = system: WT corn (Pioneer 3514, PURSUIT sensitive); assay: Phenotypic response of corn lines to PURSUIT in hydroponic medium, wild type line; type: in vivo, Zea mays
Method: In these experiments, seedlings from three genetically different corn seed lines were germinated, grown in hydroponic medium, excised, extracted and measured as described before. The plants belong to “wild type” (WT, Pioneer 3514, PURSUIT® sensitive), imidazolinone-tolerant (IT, Gerst 8541 heterozygotic, PURSUIT® tolerant), and imidazolinone-resistant (IR, Pioneer 3395, homozygotic, PURSUIT® resistant) lines.
Two batches with five seedlings each from WT, IR, and IT lines, were grown at various levels of PURSUIT® concentration, as follows in Table 5:
The different lines of corn can be distinguished phenotypically at growing levels of herbicide treatment. […] For WT, herbicidal effects are already observed at the lowest (41 μM) PURSUIT® concentration. On the other hand even the IR lines are affected by concentrations of imidazolinones so high as 4 mM. The plants were harvested after only 24 hours after treatment such that phenotypic differences were restricted to the development (or lack) of the fourth leaf. It is important to harvest at an early stage to avoid that the plants become senescent. The senescence process produces accumulation of a series of metabolites that would obscure the metabolic profile response associated with one specific mode of action.

[5] = system: IR corn (Pioneer 3395, homozygotic, PURSUIT resistant); conditions: saturated solution of PURSUIT; cited from earlier work

Row | Molecule | NN classification of treatment / mode-of-action in blind test [1] | herbicide treatment group assigned by the neural network [2] | Network Recognition [3] | output unit activation [2] | further results
1 | CC(C)C1(C)N=C(c2ncccc2C(=O)O)NC1=O (stereo not drawn) [ARSENAL®, imazapyr] | correctly assigned as AHAS inhibitors | imazethapyr | – | – | –
2 | CC(NC(=O)C(C)NC(=O)C(N)CCP(C)(=O)O)C(=O)O (stereo not drawn) [Bialaphos] | – | – | – | – | signs of damage of treated plants ([2]; 24-hours post-application, bialaphos formulation): # presented much stronger signs of damage than all the others. Formulations usually produce an effect of faster absorption and sometimes translocation that increases the metabolic response.
3 | CN(C)C(=O)Nc1ccc(Cl)c(Cl)c1 [Diuron] | – | – | Diuron | ~1 | NMR spectral changes of treated samples versus controls ([3]; 1H NMR of corn seedling extracts): most changes versus controls in the resonance region of the sugar-proton
4 | COc1nc(C)nc(NC(=O)NS(=O)(=O)c2ccccc2Cl)n1 [GLEAN®, chlorsulfuron] | correctly assigned as AHAS inhibitors | imazethapyr | – | – | –
5 | O=C(O)CNCP(=O)(O)O [Glyphosate] | – | – | Glyphosate | ~1 | –
6 | Cc1cc(C)nc(NC(=O)NS(=O)(=O)c2ccccc2C(=O)O)n1 [OUST®, sulfometuron] | correctly assigned as AHAS inhibitors | imazethapyr | – | – | –
7 | CCc1cnc(C2=NC(C)(C(C)C)C(=O)N2)c(C(=O)O)c1 (stereo not drawn) [PURSUIT ®, imazethapyr] | – | – | PURSUIT ® | ~1 | PURSUIT concentration at which herbicidal effects are observed ([4]; WT line, lowest concentration tested, hydroponic): ≤ 41 µM; phenotypic response observed ([4]; growing levels of herbicide treatment, within 48 hours): total arrest on the growth of the plants and their wilting; phenotypic response of IR plants [5]: growth arrest
8 | CCC/C(=N\OCC)C1=C(O)CC(CC(C)SCC)CC1=O (stereo not drawn) [Sethoxydim] | – | – | Sethoxydim | ~1 | –
9 | imazamethabenz [ASSERT®] | correctly assigned as AHAS inhibitors | imazethapyr | – | – | –

Reference: patent US20030023386A1, “Metabolome profiling methods using chromatographic and spectroscopic data in pattern recognition analysis” (priority 2001, published 2003)
